Data reported in the NIST ThermoML archive (doi:10.1016/j.jct.2004.07.025).
Values joined by “and” are separate entries in the source; they are usually repeats but may differ in a detail not shown here. Equal entries are not always repeated. ± gives the expanded uncertainty stated by the source.

Conditions: Liquid

For `CCOC(=O)c1ccccc1C(=O)OCC` [diethyl phthalate], the “vapor or sublimation pressure” value (303.19 K, Calculated from knudsen effusion weight loss) was 0.000165 ± 1e-05 kPa, the “vapor or sublimation pressure” value (307.62 K, Calculated from knudsen effusion weight loss) was 0.00026 ± 1.6e-05 kPa and the “vapor or sublimation pressure” value (308.1 K, Calculated from knudsen effusion weight loss) was 0.000271 ± 1.7e-05 kPa. The “vapor or sublimation pressure” value (313.34 K, Calculated from knudsen effusion weight loss) was 0.000456 ± 2.8e-05 kPa, the “vapor or sublimation pressure” value (318.54 K, Calculated from knudsen effusion weight loss) was 0.000769 ± 4.7e-05 kPa and the “vapor or sublimation pressure” value (323.04 K, Calculated from knudsen effusion weight loss) was 0.00116 ± 0.0001 kPa. For the same molecule, the “vapor or sublimation pressure” value (323.33 K, Calculated from knudsen effusion weight loss) was 0.001179 ± 0.00011 kPa, the “vapor or sublimation pressure” value (328.33 K, Calculated from knudsen effusion weight loss) was 0.001842 ± 0.00017 kPa and the “vapor or sublimation pressure” value (333.55 K, Calculated from knudsen effusion weight loss) was 0.002839 ± 0.00028 kPa. The “vapor or sublimation pressure” value (333.58 K, Calculated from knudsen effusion weight loss) was 0.002895 ± 0.00029 kPa, the “vapor or sublimation pressure” value (333.68 K, Calculated from knudsen effusion weight loss) was 0.00286 ± 0.00029 kPa and the “vapor or sublimation pressure” value (335.05 K, Closed cell (Static) method) was 0.0037 ± 0.00019 kPa. For the same molecule, the “vapor or sublimation pressure” value (335.07 K, Closed cell (Static) method) was 0.0037 ± 0.00019 kPa, the “vapor or sublimation pressure” value (337.65 K, Calculated from knudsen effusion weight loss) was 0.003873 ± 0.0004 kPa and the “vapor or sublimation pressure” value (338.68 K, Calculated from knudsen effusion weight loss) was 0.004379 ± 0.00046 kPa. The “vapor or sublimation pressure” value (343.7 K, Calculated from knudsen effusion weight loss) was 0.006569 ± 0.00073 kPa, the “vapor or sublimation pressure” value (344.41 K, Closed cell (Static) method) was 0.0076 ± 0.00033 kPa and the “vapor or sublimation pressure” value (344.43 K, Closed cell (Static) method) was 0.0077 ± 0.00034 kPa. The “vapor or sublimation pressure” value (354.01 K, Closed cell (Static) method) was 0.0158 ± 0.0006 kPa, the “vapor or sublimation pressure” value (354.03 K, Closed cell (Static) method) was 0.0159 ± 0.0006 kPa and the “vapor or sublimation pressure” value (363.15 K, Closed cell (Static) method) was 0.0304 ± 0.0009 kPa. For the same molecule, the “vapor or sublimation pressure” value (363.16 K, Closed cell (Static) method) was 0.0305 ± 0.0009 kPa, the “vapor or sublimation pressure” value (365.75 K, Closed cell (Static) method) was 0.036 ± 0.0011 kPa and 0.0359 ± 0.0011 kPa and the “vapor or sublimation pressure” value (365.77 K, Closed cell (Static) method) was 0.0363 ± 0.0011 kPa. The “vapor or sublimation pressure” value (375.29 K, Closed cell (Static) method) was 0.0671 ± 0.0018 kPa, the “vapor or sublimation pressure” value (375.31 K, Closed cell (Static) method) was 0.0671 ± 0.0018 kPa and the “vapor or sublimation pressure” value (384.96 K, Closed cell (Static) method) was 0.121 ± 0.003 kPa. For the same molecule, the “vapor or sublimation pressure” value (394.42 K, Closed cell (Static) method) was 0.21 ± 0.005 kPa and 0.209 ± 0.005 kPa and 0.207 ± 0.005 kPa, the “vapor or sublimation pressure” value (394.43 K, Closed cell (Static) method) was 0.208 ± 0.005 kPa and the “vapor or sublimation pressure” value (394.47 K, Closed cell (Static) method) was 0.207 ± 0.005 kPa. The “vapor or sublimation pressure” value (403.73 K, Closed cell (Static) method) was 0.346 ± 0.008 kPa, the “vapor or sublimation pressure” value (403.77 K, Closed cell (Static) method) was 0.347 ± 0.008 kPa and the “vapor or sublimation pressure” value (404.25 K, Closed cell (Static) method) was 0.352 ± 0.008 kPa. The “vapor or sublimation pressure” value (404.27 K, Closed cell (Static) method) was 0.352 ± 0.008 kPa, the “vapor or sublimation pressure” value (413.4 K, Closed cell (Static) method) was 0.568 ± 0.012 kPa and the “vapor or sublimation pressure” value (413.43 K, Closed cell (Static) method) was 0.569 ± 0.012 kPa. The “vapor or sublimation pressure” value (414.26 K, Closed cell (Static) method) was 0.585 ± 0.013 kPa, the “vapor or sublimation pressure” value (414.27 K, Closed cell (Static) method) was 0.586 ± 0.013 kPa and the “vapor or sublimation pressure” value (424.06 K, Closed cell (Static) method) was 0.94 ± 0.02 kPa. The “vapor or sublimation pressure” value (424.09 K, Closed cell (Static) method) was 0.94 ± 0.02 kPa, the “vapor or sublimation pressure” value (479.25 K, Ebulliometric method (Recirculating still)) was 8.318 ± 0.012 kPa and the “vapor or sublimation pressure” value (487.77 K, Ebulliometric method (Recirculating still)) was 11.06 ± 0.014 kPa. For the same molecule, the “vapor or sublimation pressure” value (494.93 K, Ebulliometric method (Recirculating still)) was 13.9 ± 0.017 kPa, the “vapor or sublimation pressure” value (501 K, Ebulliometric method (Recirculating still)) was 16.77 ± 0.019 kPa and the “vapor or sublimation pressure” value (507.32 K, Ebulliometric method (Recirculating still)) was 20.26 ± 0.023 kPa. For the same molecule, the “vapor or sublimation pressure” value (513.93 K, Ebulliometric method (Recirculating still)) was 24.53 ± 0.027 kPa and the “vapor or sublimation pressure” value (520.32 K, Ebulliometric method (Recirculating still)) was 29.35 ± 0.032 kPa.
